Experimental data taken from EP1275386A1, “SOLID […] IMPROVED ABSORBABILITY” (FUJISAWA PHARMACEUTICAL CO., LTD., priority 2000, dated 2001).

Columns and labels:
[1] = Test on solubility of active component in water (Test Example 1); format: physicochemical; settings: 15mg equivalent of Active Component 1 in 7.5 mL of water at 37 °C, agitated with a stirrer; dihydrate
Source text: Compared was the solubility of the solid dispersions obtained in Examples 2, 3 and 5 (referred to as "Preparation 2," "Preparation 3" and "Preparation 5," respectively, hereinafter) containing as an active ingredient N-(3,4-dimethoxybenzyl)-2-[(trans-4-formamidocyclohexyl)amino]-5-nitrobenzamide dihydrate (referred to as "Active Component 1" hereinafter), the amorphous Active Component 1 obtained in Comparative Example 1 and the crystal Active Component 1 obtained in Production Example 1. The test was performed by adding Preparations 2, 3 and 5, the amorphous Active Component 1 and the crystal Active Component 1 each containing 15mg equivalent of Active Component 1 to 7.5 mL of water heated to 37 °C, agitating the resulting mixtures with a stirrer and measuring the concentration of Active Component 1 in the solutions. The results are shown in Fig. 1, which is a graphical representation showing the change with time of the solubility in water of Preparations 2, 3 and 5, the amorphous Active Component 1 and the crystal Active Component 1. […]

[2] = Test on crystal state of Active Component 1 by DSC, storage at 70 °C for 7 days (Test Example 2); format: physicochemical
Protocol: Preparations 2 and 3 containing Active Component 1 and the amorphous Active Component 1 after being stored at 70 °C for 7 days were tested on the crystal state of Active Component 1 by differential scanning calorimetry (DSC for short hereinafter). […]

COc1ccc(CNC(=O)c2cc([N+](=O)[O-])ccc2N[C@H]2CC[C@H](NC=O)CC2)cc1OC.O.O [Amorphous Active Component 1, N-(3,4-dimethoxybenzyl)-2-[(trans-4-formamidocyclohexyl)amino]-5-nitrobenzamide dihydrate]
Maximum Concentration Achieved of Active Component 1 in water [1]: 8.68 µg/mL | D S C analysis results ([2]; After storage at 70 °C for 7 days): Endothermic peak caused by melting indicative of existence of crystal was recognized. | D S C analysis results ([2]; Before storage): Endothermic peak caused by melting indicative of existence of crystal was not recognized. | change of crystal state of Active Component 1 ([2]; after being stored at 70 °C for 7 days, DSC): changed from the amorphous state to a crystal state

COc1ccc(CNC(=O)c2cc([N+](=O)[O-])ccc2N[C@H]2CC[C@H](NC=O)CC2)cc1OC.O.O [Crystal Active Component 1, N-(3,4-dimethoxybenzyl)-2-[(trans-4-formamidocyclohexyl)amino]-5-nitrobenzamide dihydrate]
Maximum Concentration Achieved of Active Component 1 in water [1]: 0.38 µg/mL
